Measured values reported in PubChem BioAssay AID1963960 (Molecular Pharmacology Branch, DTP, NCI, 2024).

System: MDA-MB-468 spheroids with HUVEC/MSC, viability
Assay: Anticancer human tumor MDA-MB-468 cell line growth inhibition [PI3K];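 also: spheroids exposed to agents for seven days before readout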;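 as to viability, T/C: 100% = DMSO vehicle control viability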
Details: for IC50: curve of first compound; for viability, T/C: stronger effect = lower value
In short: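 Three cell types, namely tumor cells, endothelial cells and mesenchymal stem cells, formed each spheroid. Combinations with four PI3K inhibitors were screened at clinically achievable concentrations decreasing by half-log, and spheroid viability was recorded.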

[1] = second compound 0.0316 µM, first compound 0.0316 µM
[2] = second compound 0.0316 µM, first compound 0.1 µM
[3] = second compound 0.0316 µM, first compound 0.316 µM
[4] = second compound 0.0316 µM, first compound 1 µM
[5] = second compound 0.0316 µM, first compound 3.16 µM
[6] = second compound 0.0316 µM, first compound 10 µM
[7] = second compound 0.1 µM, first compound 0.0316 µM
[8] = second compound 0.1 µM, first compound 0.1 µM
[9] = second compound 0.1 µM, first compound 0.316 µM
[10] = second compound 0.1 µM, first compound 1 µM
[11] = second compound 0.1 µM, first compound 3.16 µM
[12] = second compound 0.1 µM, first compound 10 µM
[13] = second compound 0.316 µM, first compound 0.0316 µM
[14] = second compound 0.316 µM, first compound 0.1 µM
[15] = second compound 0.316 µM, first compound 0.316 µM
[16] = second compound 0.316 µM, first compound 1 µM
[17] = second compound 0.316 µM, first compound 3.16 µM
[18] = second compound 0.316 µM, first compound 10 µM
[19] = second compound 1 µM, first compound 0.0316 µM
[20] = second compound 1 µM, first compound 0.1 µM
[21] = second compound 1 µM, first compound 0.316 µM
[22] = second compound 1 µM, first compound 1 µM
[23] = second compound 1 µM, first compound 3.16 µM
[24] = second compound 1 µM, first compound 10 µM
[25] = second compound 3.16 µM, first compound 0.0316 µM
[26] = second compound 3.16 µM, first compound 0.1 µM
[27] = second compound 3.16 µM, first compound 0.316 µM
[28] = second compound 3.16 µM, first compound 1 µM
[29] = second compound 3.16 µM, first compound 3.16 µM
[30] = second compound 3.16 µM, first compound 10 µM
[31] = second compound 10 µM, first compound 0.0316 µM
[32] = second compound 10 µM, first compound 0.1 µM
[33] = second compound 10 µM, first compound 0.316 µM
[34] = second compound 10 µM, first compound 1 µM
[35] = second compound 10 µM, first compound 3.16 µM
[36] = second compound 10 µM, first compound 10 µM

CC(C)NCC(C(=O)N1CCN(c2ncnc3c2C(C)CC3O)CC1)c1ccc(Cl)cc1 (stereo not drawn) + CC(Nc1ncnc2nc[nH]c12)c1cc2cccc(Cl)c2c(=O)n1-c1ccccc1
IC50 (second compound 0.0316 µM): 1170 nM | IC50 (second compound 0.1 µM): 1010 nM | IC50 (second compound 0.316 µM): 1220 nM | IC50 (second compound 1 µM): 654 nM | IC50 (second compound 3.16 µM): 260 nM | IC50 (second compound 10 µM): < 31.6 nM | viability, T/C [1]: 97.6% | viability, T/C [2]: 86.2% | viability, T/C [3]: 76.4% | viability, T/C [4]: 50.4% | viability, T/C [5]: 36% | viability, T/C [6]: 25.7% | viability, T/C [7]: 78.1% | viability, T/C [8]: 87.9% | viability, T/C [9]: 77.5% | viability, T/C [10]: 48.3% | viability, T/C [11]: 38.5% | viability, T/C [12]: 25.8% | viability, T/C [13]: 73.1% | viability, T/C [14]: 80.2% | viability, T/C [15]: 76.9% | viability, T/C [16]: 51.2% | viability, T/C [17]: 38.5% | viability, T/C [18]: 27.4% | viability, T/C [19]: 72.2% | viability, T/C [20]: 64.9% | viability, T/C [21]: 59.1% | viability, T/C [22]: 46.4% | viability, T/C [23]: 29.9% | viability, T/C [24]: 27% | viability, T/C [25]: 57.5% | viability, T/C [26]: 57.7% | viability, T/C [27]: 47% | viability, T/C [28]: 40.8% | viability, T/C [29]: 32.6% | viability, T/C [30]: 25.6% | viability, T/C [31]: 46.4% | viability, T/C [32]: 41.2% | viability, T/C [33]: 42.2% | viability, T/C [34]: 34.7% | viability, T/C [35]: 26.4% | viability, T/C [36]: 21.4%

CCN1CCN(Cc2ccc(Nc3ncc(F)c(-c4cc(F)c5nc(C)n(C(C)C)c5c4)n3)nc2)CC1 + CC(Nc1ncnc2nc[nH]c12)c1cc2cccc(Cl)c2c(=O)n1-c1ccccc1
IC50 (second compound 0.0316 µM): > 1000 nM | IC50 (second compound 0.1 µM): > 1000 nM | IC50 (second compound 0.316 µM): > 1000 nM | IC50 (second compound 1 µM): > 1000 nM | IC50 (second compound 3.16 µM): > 1000 nM | IC50 (second compound 10 µM): < 3.16 nM | viability, T/C (second compound 0.0316 µM, first compound 0.00316 µM): 98.7% | viability, T/C (second compound 0.0316 µM, first compound 0.01 µM): 89.8% | viability, T/C [1]: 88.1% | viability, T/C [2]: 88.1% | viability, T/C [3]: 85.3% | viability, T/C [4]: 67.9% | viability, T/C (second compound 0.1 µM, first compound 0.00316 µM): 85.3% | viability, T/C (second compound 0.1 µM, first compound 0.01 µM): 92.7% | viability, T/C [7]: 94.1% | viability, T/C [8]: 93.7% | viability, T/C [9]: 79.3% | viability, T/C [10]: 60.1% | viability, T/C (second compound 0.316 µM, first compound 0.00316 µM): 78.3% | viability, T/C (second compound 0.316 µM, first compound 0.01 µM): 81.1% | viability, T/C [13]: 82.3% | viability, T/C [14]: 65.5% | viability, T/C [15]: 81% | viability, T/C [16]: 56.6% | viability, T/C (second compound 1 µM, first compound 0.00316 µM): 58.2% | viability, T/C (second compound 1 µM, first compound 0.01 µM): 70% | viability, T/C [19]: 69.5% | viability, T/C [20]: 61.7% | viability, T/C [21]: 56.9% | viability, T/C [22]: 51.5% | viability, T/C (second compound 3.16 µM, first compound 0.00316 µM): 60.9% | viability, T/C (second compound 3.16 µM, first compound 0.01 µM): 57.4% | viability, T/C [25]: 57.9% | viability, T/C [26]: 53.7% | viability, T/C [27]: 55.1% | viability, T/C [28]: 48.1% | viability, T/C (second compound 10 µM, first compound 0.00316 µM): 40.9% | viability, T/C (second compound 10 µM, first compound 0.01 µM): 42.4% | viability, T/C [31]: 41% | viability, T/C [32]: 40% | viability, T/C [33]: 37.8% | viability, T/C [34]: 31.8%

Cn1ncc(Cl)c1-c1cc(C(=O)NC(CN)Cc2cccc(F)c2)sc1Cl (stereo not drawn) + CC(Nc1ncnc2nc[nH]c12)c1cc2cccc(Cl)c2c(=O)n1-c1ccccc1
IC50 (second compound 0.0316 µM): 293 nM | IC50 (second compound 0.1 µM): 338 nM | IC50 (second compound 0.316 µM): 331 nM | IC50 (second compound 1 µM): 242 nM | IC50 (second compound 3.16 µM): 44.2 nM | IC50 (second compound 10 µM): < 31.6 nM | viability, T/C [1]: 83.2% | viability, T/C [2]: 73.1% | viability, T/C [3]: 45.6% | viability, T/C [4]: 32.3% | viability, T/C [5]: 26% | viability, T/C [6]: 17.7% | viability, T/C [7]: 84.6% | viability, T/C [8]: 65.5% | viability, T/C [9]: 50.3% | viability, T/C [10]: 35.9% | viability, T/C [11]: 29.7% | viability, T/C [12]: 16.1% | viability, T/C [13]: 68.7% | viability, T/C [14]: 63.4% | viability, T/C [15]: 51.1% | viability, T/C [16]: 33.9% | viability, T/C [17]: 29.1% | viability, T/C [18]: 18.6% | viability, T/C [19]: 58.4% | viability, T/C [20]: 60.1% | viability, T/C [21]: 47% | viability, T/C [22]: 32.9% | viability, T/C [23]: 27.8% | viability, T/C [24]: 17.9% | viability, T/C [25]: 51.7% | viability, T/C [26]: 45.4% | viability, T/C [27]: 40.8% | viability, T/C [28]: 32.6% | viability, T/C [29]: 25.9% | viability, T/C [30]: 20.2% | viability, T/C [31]: 40.4% | viability, T/C [32]: 41.6% | viability, T/C [33]: 36.3% | viability, T/C [34]: 28% | viability, T/C [35]: 23.8% | viability, T/C [36]: 15.5%

Cn1nccc1Nc1nccc(-c2ccn(C(CO)c3ccc(Cl)c(F)c3)c(=O)c2)n1 (stereo not drawn) + CC(Nc1ncnc2nc[nH]c12)c1cc2cccc(Cl)c2c(=O)n1-c1ccccc1
IC50 (second compound 0.0316 µM): > 10000 nM | IC50 (second compound 0.1 µM): > 10000 nM | IC50 (second compound 0.316 µM): > 10000 nM | IC50 (second compound 1 µM): > 10000 nM | IC50 (second compound 3.16 µM): > 10000 nM | IC50 (second compound 10 µM): < 31.6 nM | viability, T/C [1]: 74.2% | viability, T/C [2]: 84.5% | viability, T/C [3]: 79.5% | viability, T/C [4]: 79.6% | viability, T/C [5]: 79.4% | viability, T/C [6]: 78.3% | viability, T/C [7]: 80.1% | viability, T/C [8]: 86.1% | viability, T/C [9]: 77.8% | viability, T/C [10]: 96.7% | viability, T/C [11]: 83.8% | viability, T/C [12]: 73.5% | viability, T/C [13]: 73.1% | viability, T/C [14]: 69.3% | viability, T/C [15]: 68.4% | viability, T/C [16]: 73% | viability, T/C [17]: 78.5% | viability, T/C [18]: 78.9% | viability, T/C [19]: 65.7% | viability, T/C [20]: 59.8% | viability, T/C [21]: 62% | viability, T/C [22]: 71.8% | viability, T/C [23]: 73.4% | viability, T/C [24]: 72% | viability, T/C [25]: 56.6% | viability, T/C [26]: 55.1% | viability, T/C [27]: 49% | viability, T/C [28]: 63.2% | viability, T/C [29]: 54.5% | viability, T/C [30]: 48.8% | viability, T/C [31]: 33.8% | viability, T/C [32]: 34.8% | viability, T/C [33]: 31.1% | viability, T/C [34]: 32.2% | viability, T/C [35]: 39.2% | viability, T/C [36]: 27.6%
